From PubChem BioAssay (NCI)
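Cells were grown in 96-well plates and exposed to each compound for 48 hours at five concentrations; endpoints were interpolated linearly between bracketing concentrations, or set to the highest concentration if not reached. TGI: concentration producing complete growth inhibition.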

What was measured:
Assay in all cases: NCI-60 cell line screen, 48 h
CAKI-1 renal = system: CAKI-1 renal
MDA-MB-435 = system: MDA-MB-435
IGROV1 ovarian = system: IGROV1 ovarian
HT29 colon = system: HT29 colon
UO-31 renal = system: UO-31 renal
T-47D breast = system: T-47D breast
RXF 393 renal = system: RXF 393 renal
U251 CNS = system: U251 CNS
M14 melanoma = system: M14 melanoma
DU-145 prostate = system: DU-145 prostate
OVCAR-4 ovarian = system: OVCAR-4 ovarian
OVCAR-5 ovarian = system: OVCAR-5 ovarian
RPMI-8226 leukemia = system: RPMI-8226 leukemia
HCT-15 colon = system: HCT-15 colon
SF-295 CNS = system: SF-295 CNS
NCI/ADR-RES ovarian = system: NCI/ADR-RES ovarian
MDA-N = system: MDA-N
PC-3 prostate = system: PC-3 prostate
LOX IMVI melanoma = system: LOX IMVI melanoma
TK-10 renal = system: TK-10 renal
NCI-H226 lung = system: NCI-H226 lung
MDA-MB-231 breast = system: MDA-MB-231 breast
HCT-116 colon = system: HCT-116 colon
MALME-3M melanoma = system: MALME-3M melanoma
K-562 leukemia = system: K-562 leukemia
UACC-62 melanoma = system: UACC-62 melanoma
KM12 colon = system: KM12 colon
SK-MEL-5 melanoma = system: SK-MEL-5 melanoma
SW-620 colon = system: SW-620 colon
HOP-92 NSCLC = system: HOP-92 NSCLC
EKVX NSCLC = system: EKVX NSCLC
SF-268 CNS = system: SF-268 CNS
A549 NSCLC = system: A549 NSCLC
ACHN renal = system: ACHN renal
OVCAR-3 ovarian = system: OVCAR-3 ovarian
SK-MEL-28 melanoma = system: SK-MEL-28 melanoma
BT-549 breast = system: BT-549 breast
SK-OV-3 ovarian = system: SK-OV-3 ovarian
OVCAR-8 ovarian = system: OVCAR-8 ovarian
HOP-62 NSCLC = system: HOP-62 NSCLC
HS 578T breast = system: HS 578T breast
A498 renal = system: A498 renal
HL-60(TB) leukemia = system: HL-60(TB) leukemia
SNB-75 CNS = system: SNB-75 CNS
NCI-H522 lung = system: NCI-H522 lung
MOLT-4 leukemia = system: MOLT-4 leukemia
786-0 renal = system: 786-0 renal
NCI-H23 lung = system: NCI-H23 lung
SNB-19 CNS = system: SNB-19 CNS
COLO 205 colon = system: COLO 205 colon
SK-MEL-2 melanoma = system: SK-MEL-2 melanoma
MCF7 breast = system: MCF7 breast
SN12C renal = system: SN12C renal
NCI-H460 lung = system: NCI-H460 lung
CCRF-CEM leukemia = system: CCRF-CEM leukemia
HCC-2998 colon = system: HCC-2998 colon
SF-539 CNS = system: SF-539 CNS
SR leukemia = system: SR leukemia
UACC-257 melanoma = system: UACC-257 melanoma

O=C(O)CC(Sc1ccccc1)c1ccccc1 (stereo unspecified)
TGI (CAKI-1 renal): > 100 µM | TGI (MDA-MB-435): > 100 µM | TGI (IGROV1 ovarian): > 100 µM | TGI (HT29 colon): > 100 µM | TGI (UO-31 renal): > 100 µM | TGI (T-47D breast): > 100 µM | TGI (RXF 393 renal): > 100 µM | TGI (U251 CNS): > 100 µM | TGI (M14 melanoma): > 100 µM | TGI (DU-145 prostate): > 100 µM | TGI (OVCAR-4 ovarian): > 100 µM | TGI (OVCAR-5 ovarian): > 100 µM | TGI (RPMI-8226 leukemia): > 100 µM | TGI (HCT-15 colon): > 100 µM | TGI (SF-295 CNS): > 100 µM | TGI (NCI/ADR-RES ovarian): > 100 µM | TGI (MDA-N): > 100 µM | TGI (PC-3 prostate): > 100 µM | TGI (LOX IMVI melanoma): > 100 µM | TGI (TK-10 renal): > 100 µM | TGI (NCI-H226 lung): > 100 µM | TGI (MDA-MB-231 breast): > 100 µM | TGI (HCT-116 colon): > 100 µM | TGI (MALME-3M melanoma): > 100 µM | TGI (K-562 leukemia): > 100 µM | TGI (UACC-62 melanoma): > 100 µM | TGI (KM12 colon): > 100 µM | TGI (SK-MEL-5 melanoma): > 100 µM | TGI (SW-620 colon): > 100 µM | TGI (HOP-92 NSCLC): > 100 µM | TGI (EKVX NSCLC): > 100 µM | TGI (SF-268 CNS): > 100 µM | TGI (A549 NSCLC): > 100 µM | TGI (ACHN renal): > 100 µM | TGI (OVCAR-3 ovarian): > 100 µM | TGI (SK-MEL-28 melanoma): > 100 µM | TGI (BT-549 breast): > 100 µM | TGI (SK-OV-3 ovarian): > 100 µM | TGI (OVCAR-8 ovarian): > 100 µM | TGI (HOP-62 NSCLC): > 100 µM | TGI (HS 578T breast): > 100 µM | TGI (A498 renal): > 100 µM | TGI (HL-60(TB) leukemia): > 100 µM | TGI (SNB-75 CNS): > 100 µM | TGI (NCI-H522 lung): > 100 µM | TGI (MOLT-4 leukemia): > 100 µM | TGI (786-0 renal): > 100 µM | TGI (NCI-H23 lung): > 100 µM | TGI (SNB-19 CNS): > 100 µM | TGI (COLO 205 colon): > 100 µM | TGI (SK-MEL-2 melanoma): > 100 µM | TGI (MCF7 breast): > 100 µM | TGI (SN12C renal): > 100 µM

CCOC(=O)c1c2c(c(O)c3ccccc3c(O)n(Cc3ccccc3)c1C)C(=O)C=CC2=O
TGI (CAKI-1 renal): > 100 µM | TGI (MDA-MB-435): > 100 µM | TGI (IGROV1 ovarian): > 100 µM | TGI (HT29 colon): > 100 µM | TGI (UO-31 renal): > 100 µM | TGI (NCI-H460 lung): > 100 µM | TGI (T-47D breast): > 100 µM | TGI (RXF 393 renal): 75.9 µM | TGI (U251 CNS): > 100 µM | TGI (CCRF-CEM leukemia): > 100 µM | TGI (M14 melanoma): > 100 µM | TGI (DU-145 prostate): > 100 µM | TGI (OVCAR-4 ovarian): > 100 µM | TGI (OVCAR-5 ovarian): > 100 µM | TGI (RPMI-8226 leukemia): > 100 µM | TGI (HCT-15 colon): > 100 µM | TGI (SF-295 CNS): > 100 µM | TGI (NCI/ADR-RES ovarian): > 100 µM | TGI (MDA-N): > 100 µM | TGI (PC-3 prostate): > 100 µM | TGI (LOX IMVI melanoma): > 100 µM | TGI (TK-10 renal): > 100 µM | TGI (NCI-H226 lung): > 100 µM | TGI (MDA-MB-231 breast): > 100 µM | TGI (HCT-116 colon): > 100 µM | TGI (MALME-3M melanoma): > 100 µM | TGI (K-562 leukemia): > 100 µM | TGI (HCC-2998 colon): > 100 µM | TGI (UACC-62 melanoma): > 100 µM | TGI (KM12 colon): > 100 µM | TGI (SK-MEL-5 melanoma): > 100 µM | TGI (SW-620 colon): > 100 µM | TGI (HOP-92 NSCLC): > 100 µM | TGI (EKVX NSCLC): > 100 µM | TGI (SF-268 CNS): > 100 µM | TGI (A549 NSCLC): > 100 µM | TGI (ACHN renal): > 100 µM | TGI (OVCAR-3 ovarian): > 100 µM | TGI (SF-539 CNS): > 100 µM | TGI (SK-MEL-28 melanoma): > 100 µM | TGI (SK-OV-3 ovarian): > 100 µM | TGI (OVCAR-8 ovarian): > 100 µM | TGI (HOP-62 NSCLC): > 100 µM | TGI (HS 578T breast): > 100 µM | TGI (A498 renal): > 100 µM | TGI (HL-60(TB) leukemia): > 100 µM | TGI (SNB-75 CNS): > 100 µM | TGI (SR leukemia): > 100 µM | TGI (NCI-H522 lung): 92.7 µM | TGI (MOLT-4 leukemia): > 100 µM | TGI (786-0 renal): > 100 µM | TGI (NCI-H23 lung): > 100 µM | TGI (SNB-19 CNS): > 100 µM | TGI (COLO 205 colon): > 100 µM | TGI (SK-MEL-2 melanoma): > 100 µM | TGI (MCF7 breast): 0.769 µM | TGI (SN12C renal): > 100 µM | TGI (UACC-257 melanoma): > 100 µM
